# From patent US20040167220A1, “Environmentally safe fungicide and bactericide formulations” (priority 2003, published 2004)
# Experiments:
# Sclerotinia homoeocarpa = assay: In vitro PDA plate test against fungal plant pathogens; assay type: cell-based; details: sodium benzoate 5.0 mM, pH adjusted with citric acid; also: key: 0 - no activity, mycelial growth occurred; Fs - Fungistatic activity; Fd - Fungicidal effect - mycelial growth was completely inhibited
# Alternaria solani [1] = assay: as above; assay type: cell-based
# Botrytis cinerea [2] = assay: as above; assay type: cell-based
# Fusarium proliferatum = assay: as above; assay type: cell-based; also: key: 0 - no activity, mycelial growth occurred; Fs - Fungistatic activity; Fd - Fungicidal effect - mycelial growth was completely inhibited
# Fusarium moniliforme = assay: as above; assay type: cell-based; details: sodium benzoate 5.0 mM, pH adjusted with citric acid
# Sclerotinia sclerotiorum = assay: as above; assay type: cell-based; details: sodium benzoate 5.0 mM, pH adjusted with citric acid
# [3] = system: Colletotrichum graminicola; assay: as above; assay type: cell-based
# Fusarium nygamai [4] = assay: as above; assay type: cell-based; details: sodium benzoate 5.0 mM, pH adjusted with citric acid
# Rhytisma acerinum = assay: as above; assay type: cell-based
# Fusarium nygamai [5] = details: preservative used without the acidic pH of the invention
# Botrytis cinerea [6] = details: preservative used without the acidic pH of the invention
# Alternaria solani [7] = details: preservative used without the acidic pH of the invention
# [8] = sodium benzoate 5.0 mM, pH adjusted with citric acid, in PDA
# [9] = potassium sorbate/citric acid formulations, with or without surfactants, in PDA
# [10] = potassium sorbate and citric acid in PDA, examined after 2, 4, 6 days, viability on untreated PDA
# For Activity against Alternaria solani in this document: key: 0 - no activity, mycelial growth occurred; Fs - Fungistatic activity; Fd - Fungicidal effect - mycelial growth was completely inhibited.
# For Activity against Botrytis cinerea in this document: key: 0 - no activity, mycelial growth occurred; Fs - Fungistatic activity; Fd - Fungicidal effect - mycelial growth was completely inhibited.
smiles,measurement,setting,value
"O=C([O-])c1ccccc1.[Na+] [Control C, sodium benzoate]",Activity against Sclerotinia homoeocarpa,Sclerotinia homoeocarpa,0
same,Activity against Alternaria solani,Alternaria solani [1]; [8],0
same,Activity against Botrytis cinerea,Botrytis cinerea [2]; [8],0
same,Activity against Fusarium proliferatum,Fusarium proliferatum; [8],0
same,Activity against Fusarium moniliforme,Fusarium moniliforme,0
same,Activity against Sclerotinia sclerotiorum,Sclerotinia sclerotiorum,0
same,Activity against Colletotrichum graminicola,[3]; [8],0
same,Activity against Fusarium nygamai,Fusarium nygamai [4],0
same,Activity against Rhytisma acerinum,Rhytisma acerinum; [8],0
C/C=C/C=C/C(=O)[O-].[K+] [potassium sorbate],concentration required to kill Fusarium nygamai,Fusarium nygamai [5],greater than 2%
same,concentration required to kill Botrytis cinerea,Botrytis cinerea [6],greater than 2%
same,pathogens killed,"plant pathogens; 1 mM (0.0015%), pH 4.1, surfactants added",7 out of 8
same,activity against the broad range of plant pathogens tested,"plant pathogens; 5 mM (0.075% solution), pH 4.1",cidal activity
same,activity against plant pathogens,"plant pathogens; 10 mM (0.15% solution), pH above 7.0",inactive or at best exhibits only static activity
same,number of pathogens with cidal activity,"plant pathogens; down to 1 mM sorbate or lower, pH 4.1",two
same,concentration required to kill Alternaria solani,Alternaria solani [7],greater than 2%
"C/C=C/C=C/C(=O)[O-].[K+] [Control B, potassium sorbate]",Activity against Alternaria solani,Alternaria solani [1]; [9],0
same,Activity against Botrytis cinerea,Botrytis cinerea [2]; [9],0
same,Activity against Fusarium proliferatum,Fusarium proliferatum; [9],0
same,Activity against Colletotrichum gram.,[3]; [9],0
same,Activity against Rhytisma acerinum,Rhytisma acerinum; [9],0
O=C([O-])c1ccccc1.[Na+] [sodium benzoate],control of the plant pathogens,"plant pathogens; 5 mM (0.072% solution), pH above 7.0",ineffective
same,species tested being killed,"plant pathogens; 5 mM, pH 4.1",10 out of 10
same,species with cidal activity,"plant pathogens; 5 mM, pH 4.6",6 out of 10
"C/C=C/C=C/C(=O)[O-].[K+] [Control A, potassium sorbate]",Activity against Alternaria solani,Alternaria solani [1]; [10],0
same,Activity against Botrytis cinerea,Botrytis cinerea [2]; [10],0
same,Activity against Fusarium proliferatum,Fusarium proliferatum; [10],0
same,Activity against Colletotrichum gram.,[3]; [10],0
same,Activity against Rhytisma acerinum,Rhytisma acerinum; [10],0
